Laboratory results published in PMC3431822, “Enzymatic Properties and Mutational Studies of Chalcone Synthase from Physcomitrella patens” (International Journal of Molecular Sciences, 2012).

Biological target: T1, PpCHS (Physcomitrium patens, UniProt Q2VAZ3)
T1 construct: gene PHYPA_029015; homodimer ~120 kDa
Experiment: HPLC of pyrone product, UV […] nm
Assay type: biochemical
Details: hexanoyl-CoA co-substrate, 20 mM phosphate pH 7, 30 °C, 2 h; extender substrate; Trx-fusion enzyme

T1 sequence (Q2VAZ3 entry or part of it): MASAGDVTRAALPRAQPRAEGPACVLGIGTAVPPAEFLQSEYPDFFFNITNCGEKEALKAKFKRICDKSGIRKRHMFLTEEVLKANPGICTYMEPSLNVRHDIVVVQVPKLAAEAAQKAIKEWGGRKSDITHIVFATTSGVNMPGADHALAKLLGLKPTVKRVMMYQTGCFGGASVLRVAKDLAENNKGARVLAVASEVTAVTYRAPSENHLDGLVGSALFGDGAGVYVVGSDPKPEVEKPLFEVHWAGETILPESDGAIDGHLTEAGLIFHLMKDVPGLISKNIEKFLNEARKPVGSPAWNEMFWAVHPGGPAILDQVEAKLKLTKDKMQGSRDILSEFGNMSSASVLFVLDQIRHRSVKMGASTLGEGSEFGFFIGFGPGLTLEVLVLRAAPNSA

With CC(C)(COP(=O)(O)OP(=O)(O)OC[C@H]1O[C@@H](n2cnc3c(N)ncnc32)[C@H](O)[C@@H]1OP(=O)(O)O)[C@@H](O)C(=O)NCCC(=O)NCCSC(=O)CC(=O)O [malonyl-CoA] the “HPLC of pyrone product, UV 280 nm” value was “HPLC Analysis of the reaction of hexanoyl-CoA and malonyl-CoA with PpCHS”.
